Where a name gives a salt, the structure may show the parent alone. Read-outs that look alike come from different tables or passages of the source.
Assays:
[1] = biological target: SHP2 (Homo sapiens (Human), UniProt Q06124); test: SHP2 Biochemical Assay (DiFMUP conversion, pIRS1-activated)
Method in brief: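 Rates of DiFMU formation were followed 30 min at ex 360/em 450 nm, with 50 μM DiFMUP, 10 pM SHP2 and pIRS1 peptide ([…]) after 30 min compound pre-incubation at pH 7.0 Bis-Tris propane. Four-parameter logistic IC50s in singlicate; repeat runs averaged.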

[2] = test system: pERK (phospho-p44/42 MAPK Thr202/Tyr204) in HCC827 cells; test: Cellular pERK Inhibition Assay, Method B (PathScan phospho-p44/42 MAPK sandwich ELISA); assay type: cell-based; settings: Homo sapiens, Table 19, head prints unit as "-M", read-out: pERK (IC50) Method B
Protocol: Cellular pERK Inhibition Assay
HCC827 cells (ATCC, Manassas, USA) were seeded into 96-well plates at a density of 1×10^5 cells/well in RPMI medium supplemented with 10% FBS and incubated 24h. Compounds were diluted first in DMSO and then into serum-free medium, before being added to cells in triplicate to give a final concentration of 0.1% DMSO. Plates were incubated at 37° C. for the indicated time in a humidified atmosphere of 5% CO2 in air.
Following compound treatment, medium was removed and cells were lysed by adding 50 μL of lysis buffer (Cell Signalling Technology, Beverly, USA) to each well. Plates were then incubated at room temperature for 25 minutes with shaking. pERK levels were measured in lysates using the PathScan(Registered Trademark) phospho-p44/42 MAPK (Thr202/Tyr204) sandwich ELISA (Cell Signalling Technology, Beverly, USA) as per kit instructions. Briefly, 50 μL of cell lysate was added to 50 μL of ELISA sample diluent in a 96-well ELISA plate and incubated overnight at 4° C. Following washing, 100 μL of detection antibody was added per well and the plates incubated for 1 hour at 37° C. Plates were washed again and incubated at 37° C. for 30 minutes with 100 μl of HRP-linked secondary antibody per well. After final washing, 100 μL per well of TMB substrate was added and plates incubated at 37° C. to develop colour. Colour development was stopped by the addition of 100 μL per well of stop solution. Plates were read at 450 nm on a SpectraMax Gemini reader (Molecular Devices, Uckfield, UK).
The average signal from blank wells (no cells added) was subtracted from the signals from each sample well. Levels of pERK were then expressed as “percent of control”, using DMSO treated samples as control. Dose response curves were generated using GraphPad Prism Version 6 (GraphPad Software, La Jolla, USA) and fitted using the four parameter logistic curve fit.

[3] = test system: pERK (phospho-p44/42 ERK) in HCC827 cells; test: Cellular pERK Inhibition Assay, Method A (In-Cell Western); assay type: cell-based; settings: Homo sapiens
Method in brief: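 In-Cell Western: phospho-p44/42 ERK antibody staining of formalin-fixed HCC827 cells after compound exposure (serum-free medium, 0.2% DMSO, 37 °C, indicated time). Readings minus cell-free blanks were normalised to DMSO-treated wells. Relative IC50 came from four-parameter logistic fits of quadruplicates, given as single or mean values.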

[4] = Table 19, head prints unit as "-M"
[5] = Table 19, head prints unit as "-M", read-out: pERK (IC50) Method A
[6] = Table 20, read-out: pERK (IC50, μM) Method A

Sequence of SHP2 (Q06124 whole entry): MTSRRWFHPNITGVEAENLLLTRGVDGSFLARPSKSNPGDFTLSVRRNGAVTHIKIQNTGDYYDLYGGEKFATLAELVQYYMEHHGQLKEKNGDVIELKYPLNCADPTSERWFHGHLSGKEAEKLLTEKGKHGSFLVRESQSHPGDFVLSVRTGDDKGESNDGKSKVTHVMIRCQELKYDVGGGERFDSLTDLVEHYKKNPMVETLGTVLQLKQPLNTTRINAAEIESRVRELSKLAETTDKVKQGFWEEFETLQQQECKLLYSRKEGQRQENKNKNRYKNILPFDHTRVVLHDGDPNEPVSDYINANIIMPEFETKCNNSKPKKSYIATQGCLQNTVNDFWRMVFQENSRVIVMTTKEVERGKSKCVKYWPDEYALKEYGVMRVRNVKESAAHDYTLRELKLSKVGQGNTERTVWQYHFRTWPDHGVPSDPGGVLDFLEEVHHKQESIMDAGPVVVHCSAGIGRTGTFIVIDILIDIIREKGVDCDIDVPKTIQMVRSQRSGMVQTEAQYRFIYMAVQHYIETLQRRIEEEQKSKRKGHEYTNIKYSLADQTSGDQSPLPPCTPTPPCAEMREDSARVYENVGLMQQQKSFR

| SMILES | IC50 [1, 4] [nM] | IC50 [2] [nM] | IC50 [3, 5] [µM] | IC50 [3, 6] [µM] | IC50 ([1]; Table 20) [nM] |
| --- | --- | --- | --- | --- | --- |
| Cn1cc2c(Cl)c(-c3c[nH]c4nc(N5[C@@H]6CC[C@@H](N)[C@H]5CC6)n(C)c(=O)c34)ccc2n1 (racemic) [Example 152, rac-2-[(1R,2R,5R)-2-amino-8-azabicyclo[3.2.1]octan-8-yl]-5-(4-chloro-2-methyl-2H-indazol-5-yl)-3-methyl-3H,4H,7H-pyrrolo[2,3-d]pyrimidin-4-one] | 29 | 660 | – | – | – |
| Cn1cc2c(Cl)c(-c3c[nH]c4nc(N5[C@@H]6CCNC[C@H]5CC6)n(C)c(=O)c34)ccc2n1 (racemic) [Example 153, rac-5-(4-chloro-2-methyl-2H-indazol-5-yl)-2-[(1R,6S)-3,9-diazabicyclo[4.2.1]nonan-9-yl]-3-methyl-3H,4H,7H-pyrrolo[2,3-d]pyrimidin-4-one] | 26 | 520 | – | – | – |
| CCn1cc2c(Cl)c(-c3c[nH]c4nc(N5CCCC(N)CC5)n(C)c(=O)c34)ccc2n1 (racemic) [Example 154, rac-2-(4-aminoazepan-1-yl)-5-(4-chloro-2-ethyl-2H-indazol-5-yl)-3-methyl-3H,4H,7H-pyrrolo[2,3-d]pyrimidin-4-one hydrochloride] | 21 | 920 | – | – | – |
| Cn1cc2c(Cl)c(-c3c[nH]c4nc(N5[C@@H]6CC[C@H]5[C@H](F)[C@@H](N)C6)n(C)c(=O)c34)ccc2n1 [Example 130, 2-((1S,2R,3S,5R)-3-amino-2-fluoro-8-azabicyclo[3.2.1]octan-8-yl)-5-(4-chloro-2-methyl-2H-indazol-5-yl)-3-methyl-3,7-dihydro-4H-pyrrolo[2,3-d]pyrimidin-4-one] | 63 | – | 0.8 | – | – |
| Cn1cc2c(Cl)c(-c3c[nH]c4nc(N5[C@H]6CC[C@@H]5[C@H](F)[C@H](N)C6)n(C)c(=O)c34)ccc2n1 [Example 131, 2-((1R,2R,3R,5S)-3-amino-2-fluoro-8-azabicyclo[3.2.1]octan-8-yl)-5-(4-chloro-2-methyl-2H-indazol-5-yl)-3-methyl-3,7-dihydro-4H-pyrrolo[2,3-d]pyrimidin-4-one] | 28 | – | 0.46 | – | – |
| Cn1cc2c(Cl)c(-c3c[nH]c4nc(N5[C@@H]6CC[C@H]5[C@@H](F)[C@@H](N)C6)n(C)c(=O)c34)ccc2n1 [Example 132, 2-((1S,2S,3S,5R)-3-amino-2-fluoro-8-azabicyclo[3.2.1]octan-8-yl)-5-(4-chloro-2-methyl-2H-indazol-5-yl)-3-methyl-3,7-dihydro-4H-pyrrolo[2,3-d]pyrimidin-4-one] | 15 | – | 0.25 | – | – |
| CCn1nc2ccc(-c3c[nH]c4nc(N5[C@H]6CC[C@@H]5[C@H](N)C6)n(C)c(=O)c34)c(Cl)c2c1C#N [Example 159, 5-(2-((1R,2R,4S)-2-Amino-7-azabicyclo[2.2.1]heptan-7-yl)-3-methyl-4-oxo-4,7-dihydro-3H-pyrrolo[2,3-d]pyrimidin-5-yl)-4-chloro-2-ethyl-2H-indazole-3-carbonitrile] | 3.5 | – | 0.15 | – | – |
| Cn1nc2ccc(-c3n[nH]c4nc(N5[C@@H]6CC[C@H]5C[C@@H](N)C6)n(C)c(=O)c34)c(Cl)c2c1Cl [Example 160, 6-(endo-3-amino-8-azabicyclo[3.2.1]octan-8-yl)-3-(3,4-dichloro-2-methyl-2H-indazol-5-yl)-5-methyl-1,5-dihydro-4H-pyrazolo[3,4-d]pyrimidin-4-one, hydrochloride salt] | – | – | – | 0.23 | 8.5 |
| Cn1nc2ccc(-c3n[nH]c4nc(N5[C@@H]6CC[C@H]5C[C@@](C)(N)C6)n(C)c(=O)c34)c(Cl)c2c1Cl [Example 161, 6-(endo-3-amino-3-methyl-8-azabicyclo[3.2.1]octan-8-yl)-3-(3,4-dichloro-2-methyl-2H-indazol-5-yl)-5-methyl-1,5-dihydro-4H-pyrazolo[3,4-d]pyrimidin-4-one] | – | – | – | 0.26 | 12 |
| Cn1nc2ccc(-c3n[nH]c4nc(N5CC[C@H](N)[C@H](F)C5)n(C)c(=O)c34)c(Cl)c2c1Cl [Example 162, 6-((3R,4S)-4-amino-3-fluoropiperidin-1-yl)-3-(3,4-dichloro-2-methyl-2H-indazol-5-yl)-5-methyl-1,5-dihydro-1H-pyrazolo[3,4-d]pyrimidin-4-one] | – | – | – | 0.81 | 42 |
| Cn1nc2ccc(-c3c[nH]c4nc(N5[C@H]6CC[C@@H]5[C@@H](F)[C@@H](N)C6)n(C)c(=O)c34)c(Cl)c2c1Cl [Example 163, 2-((1R,2S,3S,5S)-3-amino-2-fluoro-8-azabicyclo[3.2.1]octan-8-yl)-5-(3,4-dichloro-2-methyl-2H-indazol-5-yl)-3-methyl-3,7-dihydro-4H-pyrrolo[2,3-d]pyrimidin-4-one] | – | – | – | 0.012 | 2 |
| CN[C@H]1C[C@H]2CC[C@@H]1N2c1nc2[nH]cc(-c3ccc4nn(C)cc4c3Cl)c2c(=O)n1C [Example 165, 5-(4-chloro-2-methyl-2H-indazol-5-yl)-3-methyl-2-((1S,2S,4R)-2-(methylamino)-7-azabicyclo[2.2.1]heptan-7-yl)-3,7-dihydro-4H-pyrrolo[2,3-d]pyrimidin-4-one] | – | – | – | 1.4 | 84 |
| COc1cnc2ccc(-c3c[nH]c4nc(N5[C@H]6CC[C@@H]5[C@H](N)C6)n(C)c(=O)c34)c(Cl)c2n1 [Example 169, 2-((1R,2R,4S)-2-amino-7-azabicyclo[2.2.1]heptan-7-yl)-5-(5-chloro-3-methoxyquinoxalin-6-yl)-3-methyl-3,7-dihydro-4H-pyrrolo[2,3-d]pyrimidin-4-one] | – | – | – | 0.073 | 3.3 |
| CN(C)c1cnc2ccc(-c3c[nH]c4nc(N5[C@H]6CC[C@@H]5[C@H](N)C6)n(C)c(=O)c34)c(Cl)c2n1 [Example 170, 2-((1R,2R,4S)-2-amino-7-azabicyclo[2.2.1]heptan-7-yl)-5-(5-chloro-3-(dimethylamino)quinoxalin-6-yl)-3-methyl-3,7-dihydro-4H-pyrrolo[2,3-d]pyrimidin-4-one] | – | – | – | 0.016 | 3 |
| Cn1nc2ccc(-c3c[nH]c4nc(N5C[C@H]6CC[C@@H]5[C@@H]6N)n(C)c(=O)c34)c(F)c2c1Cl [Example 174, 2-((1R,4R,7R)-7-amino-2-azabicyclo[2.2.1]heptan-2-yl)-5-(3-chloro-4-fluoro-2-methyl-2H-indazol-5-yl)-3-methyl-3,7-dihydro-4H-pyrrolo[2,3-d]pyrimidin-4-one] | – | – | – | 0.021 | 3 |
| Cn1c(N2[C@@H]3CC[C@H]2C[C@@H](N)C3)nc2[nH]cc(-c3ccc4nccnc4c3Cl)c2c1=O [Example 176, 2-(endo-3-amino-8-azabicyclo[3.2.1]octan-8-yl)-5-(5-chloroquinoxalin-6-yl)-3-methyl-3,7-dihydro-4H-pyrrolo[2,3-d]pyrimidin-4-one] | – | – | – | 0.66 | 77 |
| CCN[C@@H]1C[C@@H]2CC[C@H]1N2c1nc2[nH]nc(-c3ccc4nn(C)c(Cl)c4c3Cl)c2c(=O)n1C [Example 177, 3-(3,4-dichloro-2-methyl-2H-indazol-5-yl)-6-((1R,2R,4S)-2-(ethylamino)-7-azabicyclo[2.2.1]heptan-7-yl)-5-methyl-1,5-dihydro-4H-pyrazolo[3,4-d]pyrimidin-4-one] | – | – | – | 1.4 | 95 |
| COCCn1cc2c(Cl)c(-c3c[nH]c4nc(N5[C@H]6CC[C@@H]5[C@H](N)C6)n(C)c(=O)c34)ccc2n1 [Example 178, 2-((1R,2R,4S)-2-amino-7-azabicyclo[2.2.1]heptan-7-yl)-5-(4-chloro-2-(2-methoxyethyl)-2H-indazol-5-yl)-3-methyl-3,7-dihydro-4H-pyrrolo[2,3-d]pyrimidin-4-one] | – | – | – | 0.071 | 5 |
| CC(C)N[C@@H]1C[C@@H]2CC[C@H]1N2c1nc2[nH]nc(-c3ccc4nn(C)c(Cl)c4c3Cl)c2c(=O)n1C [Example 179, 3-(3,4-Dichloro-2-methyl-2H-indazol-5-yl)-6-((1R,2R,4S)-2-(isopropylamino)-7-azabicyclo[2.2.1]heptan-7-yl)-5-methyl-1,5-dihydro-4H-pyrazolo[3,4-d]pyrimidin-4-one] | – | – | – | 2.1 | 150 |

From patent US12037345B2, “Heterobicyclic compounds for inhibiting the activity of SHP2” (TAIHO PHARMACEUTICAL CO., LTD., priority 2018, dated 2024)
